Source: patent US20070208085A1 (SOMANTA LIMITED, priority 2006, published 2007)
pIC50: −log10 of the molar value. Read-outs that look alike come from different tables or passages of the source.

Legend:
786-0 = test: NCI human cell line panel cytotoxicity; format: cell-based; conditions: Renal
Procedure: (§1) To identify the activity of the compound of formula IV in additional cell lines, an NCI human cell line panel was screened for sensitivity to the compound. Cytotoxicity was evaluated for chloroethylaminoanthraquinone compounds synthesized as described in EXAMPLE 1, using an in vitro cell based assay as described in Pors et al., Mol. Cancer Ther., 2:607-610 (2003).
(§2) Human tumor cell lines from the NCI human cell line panel (Table 2) were tested in the assay.
(§3) Growth inhibition was determined, and was expressed as the concentration (nM) required to inhibit cell growth by 50% (IG50). […] In particular, excellent activity was observed against CNS, colon, NSCLC and renal cancer cell lines. […] Standard methods were used for MTT results (Monks A et. al., J. Natl Cancer Inst. 1991 June 5;83(11):757-66).

A549/ATCC = test: NCI human cell line panel cytotoxicity; format: cell-based; conditions: NSCLC
Procedure: as §1, §2, §3

ACHN = test: NCI human cell line panel cytotoxicity; format: cell-based; conditions: Renal
Procedure: as §1, §2, §3

BT549 = test: NCI human cell line panel cytotoxicity; format: cell-based; conditions: BT-549, Breast
Procedure: as §1, §2, §3

DU145 = test: NCI human cell line panel cytotoxicity; format: cell-based; conditions: DU-145, Prostate
Procedure: as §1, §2, §3

EKVX = test: NCI human cell line panel cytotoxicity; format: cell-based; conditions: NSCLC
Procedure: as §1, §2, §3

HCT-116 = test: NCI human cell line panel cytotoxicity; format: cell-based; conditions: Colon
Procedure: as §1, §2, §3

HCT-15 = test: NCI human cell line panel cytotoxicity; format: cell-based; conditions: Colon
Procedure: as §1, §2, §3

HS 578T = test: NCI human cell line panel cytotoxicity; format: cell-based; conditions: Breast
Procedure: as §1, §2, §3

HT-29 = test: NCI human cell line panel cytotoxicity; format: cell-based; conditions: Colon
Procedure: as §1, §2, §3

KM 12 = test: NCI human cell line panel cytotoxicity; format: cell-based; conditions: KM12, Colon
Procedure: as §1, §2, §3

LOX IMVI = test: NCI human cell line panel cytotoxicity; format: cell-based; conditions: Melanoma
Procedure: as §1, §2, §3

MCF7 = test: NCI human cell line panel cytotoxicity; format: cell-based; conditions: Breast
Procedure: as §1, §2, §3

MDA-MB-231/ATCC = test: NCI human cell line panel cytotoxicity; format: cell-based; conditions: Breast
Procedure: as §1, §2, §3

MDA-MB-435 = test: NCI human cell line panel cytotoxicity; format: cell-based; conditions: Breast
Procedure: as §1, §2, §3

NCI-H226 = test: NCI human cell line panel cytotoxicity; format: cell-based; conditions: NSCLC
Procedure: as §1, §2, §3

NCI-H322M = test: NCI human cell line panel cytotoxicity; format: cell-based; conditions: NSCLC
Procedure: as §1, §2, §3

NCI-H460 = test: NCI human cell line panel cytotoxicity; format: cell-based; conditions: NSCLC
Procedure: as §1, §2, §3

PC3 = test: NCI human cell line panel cytotoxicity; format: cell-based; conditions: PC-3, Prostate
Procedure: as §1, §2, §3

RPMI 8226 = test: NCI human cell line panel cytotoxicity; format: cell-based; conditions: Leuk
Procedure: as §1, §2, §3

SF 268 = test: NCI human cell line panel cytotoxicity; format: cell-based; conditions: CNS
Procedure: as §1, §2, §3

SF 539 = test: NCI human cell line panel cytotoxicity; format: cell-based; conditions: CNS
Procedure: as §1, §2, §3

SK MEL 5 = test: NCI human cell line panel cytotoxicity; format: cell-based; conditions: Melanoma
Procedure: as §1, §2, §3

SN12C = test: NCI human cell line panel cytotoxicity; format: cell-based; conditions: Renal
Procedure: as §1, §2, §3

TK10 = test: NCI human cell line panel cytotoxicity; format: cell-based; conditions: TK-10, Renal
Procedure: as §1, §2, §3

U251 = test: NCI human cell line panel cytotoxicity; format: cell-based; conditions: U-251, CNS
Procedure: as §1, §2, §3

UACC-257 = test: NCI human cell line panel cytotoxicity; format: cell-based; conditions: Melanoma
Procedure: as §1, §2, §3

UACC-62 = test: NCI human cell line panel cytotoxicity; format: cell-based; conditions: Melanoma
Procedure: as §1, §2, §3

NCI human cell lines = test: NCI human cell line panel, mean over cell lines; format: cell-based; conditions: mean against the NCI human cell lines (28 tested)
Procedure: as §1, §2, §3

[1] = system: human osteosarcoma cell line (U-2 OS); test: Cell cycle events by flow cytometry and timelapse, cyclin B1-GFP reporter; format: cell-based; conditions: U2-OS
Procedure: The U2 OS cells were stably transfected with a Green Fluorescent Protein tagged Cyclin B1 reporter and maintained at 37° C. and 5% CO2 in McCoys 5A modified medium (Sigma) supplemented with 2 mM glutamine, 100 units/ml penicillin, 100 μg/ml streptomycin, 10% fetal calf serum and 1000 μg/ml geneticin. Appropriate dilutions were added to the wells to obtain treatment regimes of 0, 10 and 100 nM of the experimental compound.
The cells were plated in a 6 well plate (density ˜15-20%). Each experiment consisted of the paired drug treatment at the appropriate dose added to the cells and the plate was placed on a stage of an inverted microscope in a sealed environment (37° C./humidified 5% CO2), and the entire apparatus was situated on a vibration-free table. Three fields were selected per well to triplicate the sampling for each experiment. Images at 10× magnification and were taken every 15 minutes over 3 days using a Cohu cooled CCD camera and the programme AQM Advance 6 to store the images. The images were viewed using the Metamorph programme.
Experimental data derived from the timelapse were analyzed by comparing the morphology of the cells and the relative growth rates per treatment regimen. This was achieved by counting the number of live cells per field every 12 hours (since a normal cell has a generation time of 24 hours) and plotting the data into relative growth curves. The initial rate of growth (between time points 0-12 and 12-24) was then calculated.
Samples by flow cytometry. U-2 OS cells were treated with the compound in a 6 well plate in an incubator over 2 days. Cells were then extracted from the plate, and Draq5 added to stain the DNA before they were analyzed using a Becton Dickinson FACS Vantage flow cytometer. The flow data was gated for intact cells, and the DRAQ5 levels (indicator of DNA content) were extracted.
DNA content and Cyclin B1 expression were measured using flow cytometry and a p53 functional human osteosarcoma cell line (U2-OS) as described above.

[2] = system: A2780 human ovarian carcinoma cell line; conditions: cited from earlier work
[3] = system: doxorubicin-resistant and cisplatin-resistant tumor cell lines; conditions: cited from earlier work

## CN(C)CCNc1ccc(NCCN(CCCl)CCCl)c2c1C(=O)c1c(O)ccc(O)c1C2=O [Compound IV]
786-0; read-out: IC50 nM
  IC50: < 10 nM
786-0; read-out: IC50
  pIC50: > 8.00
786-0; read-out: Log IC50 (converted)
  IC50: ≤ 10 nM
A549/ATCC; read-out: IC50 nM
  IC50: 27 nM
A549/ATCC; read-out: IC50
  pIC50: 7.57
A549/ATCC; read-out: Log IC50 (converted)
  IC50: 26.9 nM
ACHN; read-out: IC50 nM
  IC50: < 10 nM
ACHN; read-out: IC50
  pIC50: > 8.00
ACHN; read-out: Log IC50 (converted)
  IC50: ≤ 10 nM
BT549; read-out: IC50 nM
  IC50: 2040 nM
BT549; read-out: IC50
  pIC50: 5.69
BT549; read-out: Log IC50 (converted)
  IC50: 2040 nM
DU145; read-out: IC50 nM
  IC50: 50 nM
DU145; read-out: IC50
  pIC50: 7.30
DU145; read-out: Log IC50 (converted)
  IC50: 50.1 nM
EKVX; read-out: IC50 nM
  IC50: 759 nM
EKVX; read-out: IC50
  pIC50: 6.12
EKVX; read-out: Log IC50 (converted)
  IC50: 759 nM
HCT-116; read-out: IC50 nM
  IC50: < 10 nM
HCT-116; read-out: IC50
  pIC50: > 8.00
HCT-116; read-out: Log IC50 (converted)
  IC50: ≤ 10 nM
HCT-15; read-out: IC50 nM
  IC50: < 10 nM
HCT-15; read-out: IC50
  pIC50: > 8.00
HCT-15; read-out: Log IC50 (converted)
  IC50: ≤ 10 nM
HS 578T; read-out: IC50 nM
  IC50: 525 nM
HS 578T; read-out: IC50
  pIC50: 6.28
HS 578T; read-out: Log IC50 (converted)
  IC50: 525 nM
HT-29; read-out: IC50 nM
  IC50: < 10 nM
HT-29; read-out: IC50
  pIC50: > 8.00
HT-29; read-out: Log IC50 (converted)
  IC50: ≤ 10 nM
KM 12; read-out: IC50 nM
  IC50: 138 nM
KM 12; read-out: IC50
  pIC50: 6.86
KM 12; read-out: Log IC50 (converted)
  IC50: 138 nM
LOX IMVI; read-out: IC50 nM
  IC50: < 10 nM
LOX IMVI; read-out: IC50
  pIC50: > 8.00
LOX IMVI; read-out: Log IC50 (converted)
  IC50: ≤ 10 nM
MCF7; read-out: IC50 nM
  IC50: < 10 nM
MCF7; read-out: IC50
  pIC50: > 8.00
MCF7; read-out: Log IC50 (converted)
  IC50: ≤ 10 nM
MDA-MB-231/ATCC; read-out: IC50 nM
  IC50: 100 nM
MDA-MB-231/ATCC; read-out: IC50
  pIC50: 7.00
MDA-MB-231/ATCC; read-out: Log IC50 (converted)
  IC50: 100 nM
MDA-MB-435; read-out: IC50 nM
  IC50: 21 nM
MDA-MB-435; read-out: IC50
  pIC50: 7.68
MDA-MB-435; read-out: Log IC50 (converted)
  IC50: 20.9 nM
NCI-H226; read-out: IC50 nM
  IC50: 54 nM
NCI-H226; read-out: IC50
  pIC50: 7.27
NCI-H226; read-out: Log IC50 (converted)
  IC50: 53.7 nM
NCI-H322M; read-out: IC50 nM
  IC50: 295 nM
NCI-H322M; read-out: IC50
  pIC50: 6.53
NCI-H322M; read-out: Log IC50 (converted)
  IC50: 295 nM
NCI-H460; read-out: IC50 nM
  IC50: < 10 nM
NCI-H460; read-out: IC50
  pIC50: > 8.00
NCI-H460; read-out: Log IC50 (converted)
  IC50: ≤ 10 nM
PC3; read-out: IC50 nM
  IC50: 50 nM
PC3; read-out: IC50
  pIC50: 7.30
PC3; read-out: Log IC50 (converted)
  IC50: 50.1 nM
RPMI 8226; read-out: IC50 nM
  IC50: < 10 nM
RPMI 8226; read-out: IC50
  pIC50: > 8.00
RPMI 8226; read-out: Log IC50 (converted)
  IC50: ≤ 10 nM
SF 268; read-out: IC50 nM
  IC50: < 10 nM
SF 268; read-out: IC50
  pIC50: > 8.00
SF 268; read-out: Log IC50 (converted)
  IC50: ≤ 10 nM
SF 539; read-out: IC50 nM
  IC50: < 10 nM
SF 539; read-out: IC50
  pIC50: > 8.00
SF 539; read-out: Log IC50 (converted)
  IC50: ≤ 10 nM
SK MEL 5; read-out: IC50 nM
  IC50: 71 nM
SK MEL 5; read-out: IC50
  pIC50: 7.15
SK MEL 5; read-out: Log IC50 (converted)
  IC50: 70.8 nM
SN12C; read-out: IC50 nM
  IC50: 27 nM
SN12C; read-out: IC50
  pIC50: 7.57
SN12C; read-out: Log IC50 (converted)
  IC50: 26.9 nM
TK10; read-out: IC50 nM
  IC50: 407 nM
TK10; read-out: IC50
  pIC50: 6.39
TK10; read-out: Log IC50 (converted)
  IC50: 407 nM
U251; read-out: IC50 nM
  IC50: 19 nM
U251; read-out: IC50
  pIC50: 7.72
U251; read-out: Log IC50 (converted)
  IC50: 19.1 nM
UACC-257; read-out: IC50 nM
  IC50: 1860 nM
UACC-257; read-out: IC50
  pIC50: 5.73
UACC-257; read-out: Log IC50 (converted)
  IC50: 1860 nM
UACC-62; read-out: IC50 nM
  IC50: 219 nM
UACC-62; read-out: IC50
  pIC50: 6.66
UACC-62; read-out: Log IC50 (converted)
  IC50: 219 nM
NCI human cell lines
  pIC50: 7.31
[1]
  G2 arrest: limited expression of G2 arrest
  polyploidy on escape from G2 arrest (B1 cyclin tracking): forced some cells to enter polyploidy via an aberrant mitosis
[1]; compared to untreated cells
  pan-cell cycle progression and mitotic commitment: slowed pan-cell cycle progression and mitotic commitment
[1]; immediate (<24 h)
  induction of apoptosis: without any immediate (<24 h) induction of apoptosis
[2]
  cytotoxicity: potent cytotoxicity
[3]; Pors et al., 2003
  cellular drug resistance: very low resistance
[3]; doxorubicin-resistant and cisplatin-resistant tumor cell lines, in vitro
  cytotoxicity against resistant cell lines: maintained potent cytotoxicity
[3]; fold less resistant, Pors et al., 2003
  resistance relative to doxorubicin: 250 fold
[3]; fold less, Pors et al., 2003
  resistance relative to the other chloroethylaminoanthraquinones tested: 20-150 fold
